Laboratory results: PubChem BioAssay (NCI)
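Dose response: 5 concentrations. Exposure: 48 h. Format: 96-well plates. Endpoint: linear interpolation; highest concentration if not reached. Here, GI50 denotes the concentration required for 50% inhibition of growth. TGI denotes the concentration required for complete inhibition of growth.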

How the values were obtained:
Assay in all cases: NCI-60 cell line screen, 48 h
[1] = system: M14 melanoma
[2] = system: T-47D breast
[3] = system: COLO 205 colon
[4] = system: UACC-62 melanoma
[5] = system: CCRF-CEM leukemia
[6] = system: SK-OV-3 ovarian
[7] = system: 786-0 renal
[8] = system: TK-10 renal
[9] = system: K-562 leukemia
[10] = system: HCC-2998 colon

Structure (SMILES)	TGI [1] [µM]	TGI [2] [µM]	TGI [3] [µM]	TGI [4] [µM]	TGI [5] [µM]	TGI [6] [µM]	TGI [7] [µM]	TGI [8] [µM]	TGI [9] [µM]	TGI [10] [µM]	GI50 [1] [µM]	GI50 [2] [µM]	GI50 [4] [µM]	GI50 [9] [µM]	GI50 [10] [µM]
COc1ccc(N2C(=O)C(=O)C3(CCCCC3)C2=O)c(OC)c1OC	> 100	> 100	> 100	> 100	> 100	> 100	> 100	> 100	–	–	–	–	–	–	–
CCN(CCN(CC)C(=O)NC)C(=O)NC	> 100	> 100	> 100	> 100	> 100	> 100	> 100	> 100	> 100	> 100	–	–	–	–	–
Cc1sc2nc3n(c(=O)c2c1C)N=C(c1ccccc1)CS3	–	> 100	> 100	> 100	> 100	> 100	> 100	> 100	> 100	> 100	–	–	–	–	–
COc1cccc(/C=N/NC(=O)CN(C)C)c1O	> 100	> 100	> 100	> 100	> 100	> 100	> 100	> 100	> 100	> 100	–	–	–	–	–
CCOC(=O)[C@H](CO)Nc1c(O)c2c(c(O)c1Cl)C(=O)C=CC2=O	> 10	> 10	> 10	> 10	> 10	> 10	> 10	> 10	> 10	> 10	–	–	–	–	–
Cc1ccc(Cc2n[nH]c(=O)n2N2C(=O)c3ccccc3C2=O)cc1	> 100	> 100	> 100	> 100	> 100	–	> 100	> 100	> 100	> 100	–	–	–	–	–
COC(=O)[C@@H](NC(=O)c1ccc(CNC(=O)/C(C)=C/c2ccccc2)cc1)C(C)C	> 100	> 100	> 100	> 100	> 100	> 100	> 100	> 100	> 100	79.9	–	–	–	–	–
COc1ccc(Oc2nc3c(N)cc(C(F)(F)F)cc3nc2-c2ccccc2)cc1	41.3	26.9	25.6	> 100	> 100	43.7	56.4	> 100	> 100	> 100	–	–	–	–	–
O=C(NCCCc1cn[nH]c(=O)n1)c1cccc2nc3ccccc3nc12	> 100	> 100	> 100	> 100	> 100	> 100	> 100	> 100	> 100	> 100	–	–	–	–	–
COc1cc(O)c2c(=O)c(OC)c(-c3ccc(OC)c(OC)c3)oc2c1.[Sn]	> 100	> 100	> 100	> 100	–	> 100	> 100	> 100	> 100	> 100	> 100	7.91	> 100	> 100	> 100
CN(C)C=Nc1c2c(nc3ccccc13)CCCC2	> 100	> 100	> 100	> 100	> 100	> 100	> 100	> 100	> 100	–	–	–	–	–	–
COc1cc(C2c3cc4c(cc3OC(NNc3ccccc3)C2C)OCO4)cc(OC)c1O (stereo not given)	13.3	10.7	17.9	6.03	21.3	22.7	15.6	23.6	12.4	2.87	–	–	–	–	–
CC(=O)CC12NC(=O)N(C)N=C1N(C)C(=O)N(C)C2=O (stereo not given)	> 100	> 100	> 100	73.3	> 100	> 100	> 100	> 100	> 100	> 100	–	–	–	–	–
CCOC(=O)[C@@]12NN=N[C@@H]1[C@H]1CO[C@H](c3ccccc3)N1C2=O	33	36	23.5	21.2	> 100	33.6	30.3	30.5	–	25.7	–	–	–	–	–
CCc1n[nH]c(=O)n1N=C(c1ccccc1)c1ccccc1	> 100	> 100	> 100	> 100	> 100	–	> 100	> 100	> 100	–	–	–	–	–	–
Cc1ccc(O)cc1 (tested in a mixture with another compound)	> 100	> 100	> 100	> 100	> 100	> 100	> 100	> 100	> 100	> 100	–	–	–	–	–
Cc1cc2c(cc1-c1cc3c(cc1C)C(C(C)C)=C(O)C(=O)/C3=C\Nc1ccccn1)/C(=C/Nc1ccccn1)C(=O)C(O)=C2C(C)C	> 100	> 100	> 100	> 100	> 100	–	> 100	> 100	> 100	60.2	–	–	–	–	–
CC(=O)OC12OC(C)(C3C(=O)N(c4ccccc4)C(=O)C31)N(c1ccccc1)C2=O (stereo not given)	> 100	> 100	> 100	> 100	> 100	> 100	> 100	> 100	> 100	> 100	–	–	–	–	–
O=C1[C@H](O)[C@@H]2CCC[C@@]23CCCN13	> 100	> 100	> 100	> 100	> 100	> 100	> 100	> 100	> 100	> 100	–	–	–	–	–
C=CC(=C)CCC(Br)C(C)(C)Cl (stereo not given)	> 100	> 100	> 100	> 100	> 100	> 100	> 100	> 100	> 100	> 100	–	–	–	–	–
CCC1OC2C(CC=C(C)C)=C3OC(C)(O)C(C)(CC)C(=O)C3=C3OC(=O)C=C1C32 (stereo not given)	> 100	> 100	37	83.4	> 100	> 100	> 100	> 100	86.8	> 100	–	–	–	–	–
